According to patent publication US7132420B2, “Aspartic protease inhibitors” (The United States of America as represented by the …, priority 1999, dated 2006):
Read-outs that look alike come from different tables or passages of the source.

Columns and labels:
[1] = Rat IV pharmacokinetics; type: in vivo, rats; conditions: IV about 5 mg/kg
Description: (§1) This example illustrates the oral bioavailability of various compounds of the present invention. […] Drug concentrations were measured by centrifuging plasma samples, extracting the supernatants with tert-butyl methyl ether, and analyzing the extracts by HPLC. Oral bioavailability (% F) was calculated on the basis of the ratio of the amount of drug absorbed systemically from oral administration (AUC p.o.) relative to the amount of systemic drug obtained from intravenous administration (AUC iv).

[2] = target: plasmepsin II (Plasmodium falciparum, UniProt P46925); experiment: biochemical; type: biochemical
Description: (§2) The HIV protease assay was done according to the protocol described in Example 35. The plasmepsin II assay was done according to the protocol used in Silva et al., Proc. Nat. Acad. Sci. USA, 93, pp. 10034–10039, September 1996 (Biochemstry). The cathepsin D assay was done according to the protocol described in Gulnik et al., FEBS Letters, 413, 379–384 (1997). The compounds illustrated in Table 2 are of the general formula (II), as described in Example 35.

[3] = target: HIV-1 protease (Human immunodeficiency virus type 1 group M subtype B, UniProt P04585); experiment: HIV protease assay (Ki); type: biochemical; conditions: for Ki: read-out: HIV-1 Ki
Description: (§3) This example illustrates the HIV-1 protease inhibition activity (Ki), HIV-1 antiviral data (EC50), and the toxicity against normal cells (IC50), for particular compounds of formula (I). The HIV protease assay was done according to the protocol described in Kageyama et al, Antimicrob. Agents Chemother., 37, 272 (1993). The HIV antiviral assay was done according to the protocol described in Weislow et al., J. National Cancer Inst. 81, 577 (1989).
as §2

[4] = tested on: normal cells; experiment: toxicity against normal cells (IC50); type: cell-based
Description: as §3

[5] = target: cathepsin D (Homo sapiens, UniProt P07339); experiment: cathepsin D assay (Ki); type: biochemical; conditions: Table 2; read-out: Cath D Ki
Description: as §2

[6] = target: 32I mutant HIV-1 protease (Human immunodeficiency virus type 1 group M subtype B, UniProt P04585, V520I); experiment: HIV protease assay, 32I mutant (Ki); type: biochemical; conditions: Table 1; read-out: 321 Ki
Description: as §3

[7] = Rat P.O. pharmacokinetics and oral bioavailability; type: in vivo, rats; conditions: for Cmax / Rat P.O. tmax: P.O. about 37 mg/kg, PEG 300 vehicle
Description: as §1

[8] = target: 82F/84V mutant HIV-1 protease (Human immunodeficiency virus type 1 group M subtype B, UniProt P04585, I572V/V570F); type: biochemical; conditions: Table 1
Description: as §3

[9] = target: 84V mutant HIV-1 protease (Human immunodeficiency virus type 1 group M subtype B, UniProt P04585, I572V); experiment: HIV protease assay, 84V mutant (Ki); type: biochemical; conditions: Table 1
Description: as §3

[10] = tested on: HIV-1; experiment: HIV antiviral assay (EC50); type: cell-based
Description: The HIV protease assay was done according to the protocol described in Kageyama et al, Antimicrob. Agents Chemother., 37, 272 (1993). The HIV antiviral assay was done according to the protocol described in Weislow et al., J. National Cancer Inst. 81, 577 (1989).

[11] = IV-PO crossover oral bioavailability studies; type: in vivo; conditions: two Sprague-Dawley rats; IV 7 and 3 mg/kg (DMSO), oral 22 and 50 mg/kg (PEG300)
Description: Compound (19) was tested in IV-PO crossover studies in two Sprague-Dawley rats. For the IV portion of the studies, compound (19) was given at doses of 7 and 3 mg/kg, as a short infusion (30–60 seconds) via a jugular vein catheter using a vehicle of DMSO and a dose volume of 1 ml/kg. Heparinized blood samples were collected at close intervals through 3 hours, the plasma was separated, and plasma concentrations of compound (19) were determined by HPLC. One to two weeks later, the same rats were given doses of 22 and 50 mg/kg by gastric intubation. The vehicle was PEG300 and the dose volume was 10 ml/kg. Blood samples were collected at regular intervals through 24 hours, and analyzed as above. The oral bioavailability in both of these studies was 100%. Based on the excellent oral bioavailability of compound (19), it is expected that compound (19) will be an effective inhibitor of systemic aspartic protease when administered orally. Other compounds of the present invention also are expected to have-good oral bioavailability.

[12] = comparison of Table 2 Ki values

Chain of plasmepsin II (P46925 125-453): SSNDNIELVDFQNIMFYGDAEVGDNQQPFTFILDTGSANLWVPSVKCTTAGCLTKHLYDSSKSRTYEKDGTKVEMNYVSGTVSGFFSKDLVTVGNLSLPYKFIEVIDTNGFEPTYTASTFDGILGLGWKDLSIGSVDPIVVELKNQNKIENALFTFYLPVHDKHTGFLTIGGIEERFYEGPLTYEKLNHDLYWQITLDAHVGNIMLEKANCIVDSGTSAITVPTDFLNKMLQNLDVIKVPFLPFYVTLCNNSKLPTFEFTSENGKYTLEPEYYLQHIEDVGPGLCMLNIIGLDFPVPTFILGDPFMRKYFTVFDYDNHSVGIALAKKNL
Chain of cathepsin D (P07339 65-412): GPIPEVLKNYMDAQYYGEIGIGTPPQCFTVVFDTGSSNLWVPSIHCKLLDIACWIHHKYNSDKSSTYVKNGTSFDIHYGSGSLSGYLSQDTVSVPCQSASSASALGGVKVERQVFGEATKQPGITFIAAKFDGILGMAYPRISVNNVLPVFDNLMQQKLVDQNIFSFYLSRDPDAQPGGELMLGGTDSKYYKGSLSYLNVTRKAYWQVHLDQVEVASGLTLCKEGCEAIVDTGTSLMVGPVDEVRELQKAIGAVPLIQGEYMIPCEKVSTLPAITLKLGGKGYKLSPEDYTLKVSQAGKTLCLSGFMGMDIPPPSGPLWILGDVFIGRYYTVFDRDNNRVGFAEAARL

Cc1cccc(C)c1OCC(=O)N[C@@H](Cc1ccccc1)[C@@H](O)C[C@H](CC(C)C)NC(=O)[C@H](C(C)C)N1CCCNC1=O [(16)]
Rat IV CL [1]: 9.8 mL/min/kg
Rat IV t1/2 [1]: 27 min
Ki ([2]; Table 2, read-out: Pls II Ki): 357 nM
potency relative to compound (24) against plasmepsin II [2, 12]: about ten-fold more potent than compound (24)
inhibitory activity against HIV-1 protease, in words [3]: excellent potency
Ki ([3]; Table 1): 0.007 nM
Ki ([3]; Table 2): 0.007 nM
Ki ([3]; Table 3): 0.008 nM
potency relative to compound (24) against HIV-1 protease [3, 12]: about ten-fold more potent than compound (24)
IC50 ([4]; Table 2): > 100000 nM
Ki [5]: 3300 nM
Ki [6]: 0.031 nM
Rat P.O. % F (%) ([7]; AUC p.o. relative to AUC iv): 1%
Cmax [7]: 0.269 µM
Rat P.O. tmax [7]: 10 to 15 min
Ki [8]: 0.137 nM
Ki [9]: 0.091 nM
EC50 ([10]; Table 1): 23 nM
EC50 ([10]; Table 2): 23 nM
EC50 ([10]; Table 3): 23 nM

CC(C)C[C@@H](C[C@H](O)[C@H](Cc1ccccc1)NC(=O)OCc1cncs1)NC(=O)[C@H](C(C)C)N1CCCNC1=O [Compound (19), (2S,3S,5S)-5-[N-[[3-methyl-2S-(2-oxo-tetrahydropyrimidin-1-yl)]butyryl]amino]-2-[N-[(thiazol-5-yl-methoxy)carbonyl]amino]-3-hydroxy-7-methyl-1-phenyloctane]
Rat IV CL [1]: 25 mL/min/kg
Rat IV t1/2 [1]: 18 min
Ki ([3]; Table 1): 0.07 ± 0.01 nM
Ki ([3]; Table 3): 0.07 nM
IC50 ([4]; Table 1): > 100000 nM
Cmax [7]: 24.8 µM
Rat P.O. tmax [7]: 120 to 360 min
Cmax when administered orally, in words ([7]; oral): micromolar
oral bioavailability [11]: 100%
EC50 ([10]; Table 1): 500 nM
EC50 ([10]; Table 3): 500 nM
